The results in this text go back to patent US8648100B2, “Roflumilast for the treatment of pulmonary hypertension” (Takeda GmbH, priority 2005, dated 2014).

Like-named read-outs stand apart in the source and are kept apart here.

Common to all, as to format: in vivo, adult male Wistar rats
The test system of data set [1] is monocrotaline (MCT)-induced pulmonary arterial hypertension in rats (curative approach). The experiment in a line: Monocrotaline (MCT)-induced pulmonary hypertension in rats, curative approach (treatment day 21 to day 42). On the procedure: (§1) Rats were randomly assigned to three groups (8-10 animals in each group): two groups received Roflumilast 0.5 and 1.5 mg kg^−1 d^−1, respectively; and one group received vehicle. In the preventive treatment paradigm Roflumilast or vehicle were given once daily by gavage for 21 days starting immediately after a single subcutaneous injection of MCT (60 mg kg^−1). A group not receiving MCT served as control. In a curative approach rats were left untreated for 21 days following MCT (60 mg/kg s.c.) and than randomly divided into two groups, one received roflumilast (1.5 mg/kg/d) p.o. and the other vehicle, from day 21 to day 42.
(§2) At the end of the treatment period rats were anaethesized with sodium pentobarbital (60 mg/kg, i.p.). A polyvinyl catheter was introduced into the right jugular vein and pushed through the right ventricle into the pulmonary artery. Another polyethylene catheter was inserted into the right carotid artery. After measurement of pulmonary (PAP) and systemic arterial pressures (SAP), the thorax was opened and the left lung immediately removed and frozen in liquid nitrogen. The heart was dissected and weighed for calculation of the right ventricular hypertrophy index (ratio of right ventricular free wall weight over sum of septum plus left ventricular free wall weight; RV/LV+S). The right lung was fixed in the distended state with formalin buffer. After routine processing and paraffin embedding, multiple sections from each lobe were stained with haemotoxylin and eosin. In each rat, 60 intraacinar arteries were analyzed and categorized as muscular (fully or partially) or nonmuscular to assess the degree of muscularization. In addition, intraacinar fully muscularized arteries were evaluated for measurements of medial wall thickness which was calculated and expressed as follows: index (%)=(External diameter−internal diameter)/External diameter×100%.
(§3) The data are expressed as means±SEM. A nonparametric Mann-Whitney test was used for comparisons between two groups. Comparisons of data at various times after MCT injection or of various treatment groups were performed using a nonparametric Kruskal-Wallis test followed by Dunn's test when significant. To compare the degree of pulmonary vessels muscularization between groups, we used a non parametric Mann-Whitney or a Kruskal-Wallis test after ordinal classification of the vessels as non muscular, partially muscular, or fully muscular.
In a curative approach Roflumilast (1.5 mg/kg/d) p.o. or vehicle were administered beginning at day 21 following MCT i.e. when pulmonary vascular remodeling and consequently augmented PAP and right ventricular hypertrophy were manifest. After another 3 weeks (i.e. at day 42) PAP was measured and rats were sacrificed to assess RV/LV+S ratio and muscularization of distal pulmonary arteries.

The subject of data set [2] is monocrotaline (MCT)-induced pulmonary arterial hypertension in rats. Nature of the data set: Monocrotaline (MCT)-induced pulmonary hypertension in rats, preventive treatment paradigm. The settings on record: for PAP: mean ± SEM; for Muscularization: distal pulmonary arteries; for RV/LV + S: right ventricular hypertrophy index. On the procedure:
(§4) The objective of the pharmacological investigation was to characterize the effect of orally administered Roflumilast at 0.5 mg kg^−1 d^−1 and 1.5 mg kg^−1 d^−1 on the increase in mean PAP and RV/LV+S ratio as well as distal arteriolar muscularization triggered by chronic hypoxia or monocrotalin (MCT) in rats. Hypoxia- or MCT-induced pulmonary hypertension in rats represent widely accepted animal models to study the potential of investigative drugs to reverse chronic pulmonary hypertension based on pulmonary vascular remodelling. In the MCT setting Roflumilast was administered both in preventive and curative paradigms.
(§5) Experiments were performed with adult male Wistar rats (200-250 g) according to institutional guidelines abiding to national and international regulations.
as §1, §2, §3

For data set [3], the system named is chronic hypoxia-induced pulmonary arterial hypertension in rats. Conditions: for PAP: mean ± SEM; for RV/LV + S: right ventricular hypertrophy index; for Muscularization: distal pulmonary arteries. The method, then: as §4, §5
Rats were exposed to chronic hypoxia (10% O2) in a ventilated chamber (500-liter volume, Flufrance, Cachan, France). To establish the hypoxic environment, the chamber was flushed with a mixture of room air and nitrogen, and the gas was recirculated. The environment within the chamber was monitored using an oxygen analyzer (Oxiquant M, EnviTeC—Wismar, Germany). Carbon dioxide was removed by self-indicating soda lime granules. Excess humidity was prevented by cooling of the recirculation circuit. The chamber temperature was maintained at 22-24° C. The chamber was opened every other day for 1 hour to clean the cages and replenish food and water supplies. Normoxic control rats were kept in the same room with identical light-dark cycle. Rats exposed to chronic hypoxia were randomly assigned to three groups (8-10 animals per group): the first group received Roflumilast at 0.5 mg kg^−1 d^−1, the second group received Roflumilast at 1.5 mg kg^−1 d^−1, the third group received vehicle (methocel). A group not exposed to hypoxia served as control. Roflumilast or vehicle were administered once daily by gavage over 15 days of exposure to hypoxia.
as §2, §3

[4] abbreviates: Day 42, Roflumilast 1.5 mg/kg/d p.o. starting day 21 after MCT.
Where [5] appears, read: MCT + 0.5 mg/kg Roflumilast for 21 days.
[6] abbreviates: MCT + 1.5 mg/kg Roflumilast for 21 days.
[7] abbreviates: conclusion for pulmonary hypertension triggered by hypoxia or monocrotaline in rats.
[8] abbreviates: Hypoxia 15 days + 0.5 mg/kg Roflumilast once daily by gavage.
The mark [9] stands for this setting: Hypoxia 15 days + 1.5 mg/kg Roflumilast once daily by gavage.

Take `O=C(Nc1c(Cl)cncc1Cl)c1ccc(OC(F)F)c(OCC2CC2)c1` [Roflumilast, 3-cyclopropyl-methoxy-4-difluoromethoxy-N-(3,5-dichloropyrid-4-yl)benzamide]: the PAP in data set [1] (setting [4]) is 23.6 ± 0.7 mmHg; in data set [2] (MCT 60 mg/kg s.c. + 0.5 mg/kg Roflumilast once daily by gavage for 21 days), 29.3 ± 1.3 mm Hg; in data set [2] (MCT 60 mg/kg s.c. + 1.5 mg/kg Roflumilast once daily by gavage for 21 days), 21.4 ± 2.0 mm Hg; in data set [3] (setting [8]) it was 28 ± 1.8 mm Hg; in data set [3] (setting [9]), 25.5 ± 1.8 mm Hg. Also, the “RV/LV + S” value in data set [1] (setting [4]) came out at 33.8 ± 0.9%; in data set [2] (setting [5]), 38.9 ± 1.6%; in data set [2] (setting [6]) it was 31.3 ± 1.8%; in data set [3] (setting [8]), 37.8 ± 2.3%; in data set [3] (setting [9]), 30.5 ± 0.8%. Further, the Muscularization in data set [1] (Day 42, Roflumilast 1.5 mg/kg/d p.o. starting day 21 after MCT, distal pulmonary arteries) is 36.4 ± 2.4%; in data set [2] (setting [5]), 62.7 ± 5.4%; in data set [2] (setting [6]), 30.3 ± 8.2%; in data set [3] (Hypoxia 15 days + 0.5 mg/kg Roflumilast), 31.8 ± 2%; in data set [3] (Hypoxia 15 days + 1.5 mg/kg Roflumilast) it was 18.5 ± 2%. The “survival rate (animals alive at day 42)” value in data set [1] (Roflumilast 1.5 mg/kg/d from day 21, 17 of 24 rats, vehicle 54%) is reported as 71%. Further, the “reduction of the proportion of fully muscularized arterioles” value in data set [1] (at day 42, Roflumilast 1.5 mg/kg/d from day 21) is listed as above 50%. In addition, the “Medial wall thickness index of the fully muscularized pulmonary arterioles” value in data set [1] (at day 42, Roflumilast 1.5 mg/kg/d from day 21, vehicle 52±4%) worked out at 18±2%. Besides, the “ratio of completely obliterated arterioles” value in data set [1] (at day 42, Roflumilast 1.5 mg/kg/d from day 21, vehicle 66±3%) is listed as 30±5%. For the same molecule, in data set [2] (setting [7]), the heart rate result is given as “unaffected”. Further, in data set [2] (setting [7]), the systemic arterial pressure entry is recorded as “unaffected”.
